For series [1], the system named is Staphylococcus aureus. Description: antimicrobial testing by agar dilution, Staphylococcus aureus. In kind it is cell-based. As to conditions: after 10, 20, 40 and 60 minutes at all dilutions 1:100, 1:200, 1:400, 1:800. Here is the method:
(§1) The antimicrobial properties of the 1-hexyl-5-(4-methoxyphenyl)-2,4-diphenyl-1H-imidazole was studied by the method of agar dilution. Test solutions of each compound was prepared in concentration of 1% using dimethylformamide as a solvent then they are diluted in physiological solution to obtain the final experimental dilutions 1:100, 1:200, 1:400, 1:800. The effect of these substances are compared with furacillin in a controllable study. The testing microbes used were gram positive bacteria Staphylococcus aureus, gram negative bacteria Escherichia coli, Pseudomonas aeruginosa and Candida albicans fungi were taken. The experiments used for this survey were meat-pentonlu agar (EPA) for cultivation of bacteria and Saburo environment for fungi. Each experiment used 1 ml of test solution on each plate 500 min. Add 2 drops of emulsified with microbes feel. All experimental samples were taken from the agar after 10, 20, 40, 60 minutes in the environment on the basis of Patrk planted. Bacteria were cultivated at a temperature of 37° C. for 1 day and the mushroom was kept in a thermostat for […] at a temperature of 28° C. Then the results were checked.
On the technique in general: In agar dilution, organisms are placed on agar that contains the substance at set levels.

For series [2], the system named is Escherichia coli. Put plainly: antimicrobial testing by agar dilution, Escherichia coli. It counts as cell-based. The settings on record: after 10, 20, 40 and 60 minutes at all dilutions 1:100, 1:200, 1:400, 1:800. Here is the method:
as §1

Series [3] concerns Pseudomonas aeruginosa. Description: antimicrobial testing by agar dilution, Pseudomonas aeruginosa. In kind it is cell-based. As to conditions: after 10, 20, 40 and 60 minutes at all dilutions 1:100, 1:200, 1:400, 1:800. The procedure: as §1
Series [4] deals with Candida albicans. Description: antimicrobial testing by agar dilution, Candida albicans. In kind it is cell-based. As to conditions: after 10, 20, 40 and 60 minutes at all dilutions 1:100, 1:200, 1:400, 1:800. The procedure: as §1

1 compound from patent publication US11970461B1, “1-hexyl-5-(4-methoxyphenyl)-2,4-diphenyl-1H-imidazole as an antimicrobial compound” (KING FAISAL UNIVERSITY, priority 2023, dated 2024) can be followed below.

By melting point is commonly meant the temperature, or range, at which the solid turns liquid.

As to `CCCCCCn1c(-c2ccccc2)nc(-c2ccccc2)c1-c1ccc(OC)cc1` [1-hexyl-5-(4-methoxyphenyl)-2,4-diphenyl-1H-imidazole], the melting point was in the range of 161 to 162 °C. Moreover, in series [1], the “inhibition activity, Staphylococcus aureus” value was “higher inhibition activity”. The “inhibition activity, Escherichia coli” value in series [2] is recorded as “higher inhibition activity”. Besides, the “inhibition activity, Pseudomonas aeruginosa” value in series [3] was “higher inhibition activity”. Moreover, in series [4], the “inhibition activity, Candida albicans” value was “higher inhibition activity”.
